The test system of assay [1] is chondrocytes from sterna of 16-day-old embryonic chicks. Put plainly: Stimulation of DNA synthesis in chondrocytes by PTH fragments (Table 1). It is filed as cell-based, chick. The following applies: for [^3 H]thymidine incorporation: 4 h, control 139 ± 6; for E/C: stimulated / non-induced control cells. As to the method: Chondrocytes were isolated from sterna of 16-day-old embryonic chicks according to J. Biol. Chem., 261 (1986) 7997-8001 (10; Yasui et al.) with some modifications. Collagenase was dissolved in Hanks' balanced salt solution (0.4 mM Na2 HPO4, 140 mN NaCl, 5.3 mM KCl, 0.4 mM MgSO4, 1.3 mM CaCl2, 0.4 mM KH2 PO4, 0.5 mM MglC2, 5 mM glucose, 0.05% gentamicin) at a concentration of 286 units/ml. Sterna were treated repeatedly for 30 min with collagenase solution at 37° C. Cells first released by this procedure were discarded because of their very poor responsiveness towards PTH. The collagenase treatment was subsequently repeated leading to a highly homogenous cell population of chondrocytes. The cells obtained by a second collagenase treatment were collected by centrifugation (1000 rpm, 10 min), washed twice with medium (Dulbecco's modified Eagle's medium, GIBCO, supplemented with NaHCO3 (45 mM), glutamine (2 mM), penicillin G/streptomycin (65 mg/1 and 100 mg/l, respectively), Hepes (10 mM, pH 7.2), and FCS (10% v/v) and counted.
The DNA synthesis rate was assayed in monolayer culture by the incorporation of ]^3 H]thymidine into perchloric acid-precipitable material. […] After 17 h, the medium was replaced by 200 μl of serum-free medium. After 4 days, chondrocytes were incubated for 4 h with the appropriate effector and 1μ Ci of [^3 H]thymidine. Subsequently, medium was removed and the cells were washed twice with 200 μl of phosphate-buffered saline (PBS: 137 mM NaCl, 2.7 mN KCl, 1.5 mM KH2 PO4, 0.8 mN Na2 HPO4, pH 7.0). Then cells were lysed by 100 μl of 2% (v/v) Nonidet P- 40 and 2% (w/v) sodium dodecyl sulfate treatment and the perchloric acid-insoluble material was precipitated by adding an equal volume of ice-cold 2% (w/v) perchloric acid in the presence of 1% herring sperm DNA as carrier. After storage for 10 min at -20° C., the precipitated material of each well was transferred to glass fiber filters with a Scatron--As semiautomatic cell harvester. Filters were dried at 80° C. for 20 min, transferred into scintillation vials, and 2 ml of scintillation mixture (scintillator 299; United Technology Pachard) were added. Radioactivity of the samples was determined with a β counter (Minimax; United Technology Pachard). Each test consisted of 5 up to 10 identically treated wells and was repeated at least twice with freshly prepared chondrocytes.
The incorporation of [^3 H]thymidine by non-induced control cells and by stimulated cells is shown by C and E, respectively. The results shown mean ±S.E. for n parallel cell cultures.

Assay [2] relates to osteoblast enriched rat embryo calvaria cell cultures. Put plainly: Cyclic AMP production in rat embryo calvaria cell cultures. It is filed as cell-based. The following applies: 100 nM; 15 min; control 29 ± 2.9 pmol/mg of protein. As to the method:
(§1) FIG. 10 is a graphical representation showing the dose dependent stimulation by bPTH (1-84) of osteoblast enriched rat embryo calvaria cell cultures. Experimental details for the determination of cyclic AMP (.quadrature.) (15 min after stimulation) and incorporation of [^3 H]thymidine into DNA ( ) and CK ( ) specific activity (24 h after stimulation) are given below. The results are means ±S.E.M., N≥5. In several cases the S.E.M. was less than the size of the symbol. Control values were: cyclic AMP, 25±5 pmol/mg of protein; DNA, 240±30 c.p.m./μg of DNA; CK, 200±20 nmol/min per mg of protein. Statistical significance of differences between treated and corresponding control groups by Student's T test: *P<0.05; **P<0.01.
(§2) Rat calvaria cultures were treated with fragments of PTH derived from the central portion of the molecule.

For assay [3] the test system is unchanged. Put plainly: CK specific activity in rat embryo calvaria cell cultures. The conditions noted are these: 100 nM; 24 h; control 457 ± 46 nmol/min per mg of protein. It counts as cell-based. As to the method: as §1, §2
For assay [4] the test system is unchanged. Put plainly: DNA synthesis ([3H]thymidine incorporation) in rat embryo calvaria cell cultures. It is filed as cell-based. As to the method:
as §1

The subject of assay [5] is ROS 17/2.8 osteoblast-like cells. Put plainly: Cyclic AMP production in ROS 17/2.8 osteoblast-like cells. It counts as cell-based, rat. The conditions noted are these: 400 nM; control 29 ± 5.2 pmol/mg of protein. As to the method:
When cultures of the widely used model for osteoblasts, the osteoblast-likeclone of rat osteosarcoma, ROS 17/2.8 (Endocrinology (Baltimore), 107 (1980) 1494-1503=12; Majeska et al.), were incubated with full-length PTH and PTH fragments (Table 4), cyclic AMP production was stimulated only by bPTH(1-84) and hPTH(1-34), whereas hPTH(25-39), hPTH(27-48), hPTH(28-48) and hPTH(34-47) were ineffective.

The test system is the same in assay [6]. Put plainly: CK specific activity in ROS 17/2.8 osteoblast-like cells. It is filed as cell-based, rat. The conditions noted are these: 400 nM; control 698 ± 70 nmol/min per mg of protein.
For assay [7] the test system is unchanged. Put plainly: DNA synthesis in ROS 17/2.8 osteoblast-like cells. It is filed as cell-based, rat. The conditions noted are these: 400 nM; control 392 ± 58 c.p.m./μg of DNA.

Take “hPTH(28-47): PTH fragment 28-47, human source (LQDVHNFVALGAPLAPRDAG; Parathyroid hormone; UniProt P01270 59-78, looked up, fragment)”: the “[^3 H]thymidine incorporation” value in assay [1] (4.5 × 10^-5 mol/l) is reported as 276 ± 36 cpm; in assay [1] (4.5 × 10^-6 mol/l), 202 ± 17 cpm; in assay [1] (4.5 × 10^-7 mol/l), 205 ± 22 cpm; in assay [1] (4.5 × 10^-8 mol/l), 196 ± 25 cpm. Besides, the E/C is given as 1.99 in assay [1] (4.5 × 10^-5 mol/l), 1.45 in assay [1] (4.5 × 10^-6 mol/l), 1.47 in assay [1] (4.5 × 10^-7 mol/l) and 1.41 in assay [1] (4.5 × 10^-8 mol/l). In assay [2], the “Cyclic AMP concentration, effect of fragment (experimental value/control value)” value was found to be 0.52 ± 0.39. In addition, the “CK specific activity, effect of fragment (experimental value/control value)” value in assay [3] is on record as 2.18 ± 0.12; in assay [6] it was 1.66 ± 0.11. Further, the “stimulation of DNA synthesis (in words)” value in assay [4] is given as “less”. Also, the “[3H)Thymidine incorporation, effect of fragment (experimental value/control value)” value in assay [4] (100 nM, 24 h, control 624 ± 73 c.p.m./μg of DNA) was 2.11 ± 0.09. Also, the “Cyclic AMP, effect of fragment (experimental value/control value)” value in assay [5] amounted to 1.03 ± 0.16. The “[^3 H]Thymidine incorporation, effect of fragment (experimental value/control value)” value in assay [7] was determined as 1.44 ± 0.11.

Values taken from patent US5457092A, “Methods of promoting bone growth in mammals comprising administration of modified parathyroid hormone” (Gesellschaft fur Biotechnologische Forschung mbH (GBF), priority 1987, dated 1995).
